We go through ten molecules from patent US12133523B2, “Anti-freezing composition comprising self-assembly compound” (Korea University Research and Business Foundation, priority 2019, dated 2024).

“Also recorded” adds a separate entry of the source. Residues, ends and D or L forms follow the SMILES beside them. *: point of attachment. Fmoc = O=C(OCC1c2ccccc2-c2ccccc21)*

The nature of series [1]: Ice recrystallization inhibition (IRI) splat assay, MLGS from DFOM images. Conditions: for IRI effect: ice recrystallized 30 minutes at -6 °C. As to the method: In order to more clearly confirm the effect of inhibiting ice crystal growth, ice recrystallization inhibition (IRI) characteristics were analyzed. Analysis of ice recrystallization was performed by reference Mitchell, D. E., Clarkson, G., Fox, D. J., Vipond, R. A., Scott, P., & Gibson, M. I. (2017). Antifreeze Protein Mimetic Metallohelices with Potent Ice Recrystallization Inhibition Activity. Journal of the American Chemical Society, 139(29), 9835-9838 and Budke, C., Heggemann, C., Koch, M., Sewald, N., & Koop, T. (2009). Ice Recrystallization Kinetics in the Presence of Synthetic Antifreeze Glycoprotein Analogues Using the Framework of LSW Theory. The Journal of Physical Chemistry B, 113(9), 2865-2873. More specifically, a 10 μL sample was dropped from a height of 1.5 m onto a surface of a cover glass precooled to −60° C. so as to form a thin film of ice. […] During recrystallization of ice, dark-field optical microscopy (DFOM) images were taken, and ten of the largest ice crystal domains were chosen and a mean value thereof was obtained to evaluate the IRI activity. A mean largest grain size (MLGS) analysis was repeated three times.

The subject of series [2] is mouse embryonic stem cells (mESCs). The series is described as follows: mESC cell viability by CCK-8 assay and crystal violet dye. Format: cell-based. Conditions: for toxicity to mESC: 5 to 20 uM, CCK-8 and crystal violet dye; for cell viability with respect to mESC: CCK-8. As to the method: In a 60 mm cell culture dish coated with 0.1% gelatin (Sigma), mouse ES cells were cultured in a medium DMEM (Hyclone), to which 2 mM L-glutamine (Mediatech Inc.), 1% penicillin/streptomycin (Mediatech Inc.), 15% heat-inactivated fetal bovine serum (Hyclone), 20 mM HEPES-pH 7.3 (Cellgro), 0.1 mM MEM non-essential amino acid (Cellgro), 0.1 mM 2-mercaptoethanol (Sigma) and 1000 U/mL LIF (Millipore) are added, in order to prevent differentiation.
Mouse ES cells were seeded by 8×10^4 cells per well in a 96-well plate containing the above various cryopreservation solutions. After 9 hours, CCK-8 reagent was added and fluorescence intensity was measured using an ELISA Reader (TECAN).
[…] Cells were washed with 500 μL of PBS and 500 μL of 4% PFA was added thereto for 15 minutes. The fixed cells were washed twice with 500 μL of PBS and 0.5% crystal violet solution was added thereto for 30 minutes. The stained cells were washed with tap water.
Background: Tetrazolium assays rely on reduction of a dye to a coloured formazan, in cell work by metabolically active cells.

Series [3] has the same test system. The series is described as follows: Cryopreservation activity for mESC (freeze/thaw survival, differentiation). The series is classed as cell-based. Conditions: sample solution 10% (v/v), FBS 40%, media 50%; -80 °C then liquid nitrogen. How it is done: 250 μL of trypsinized mouse ES cells, 200 μL of FBS and 50 μL of cryopreservation solution (0.005 μM, 0.01 μM, 0.05 μM, and 0.1 μM) were frozen in a rapid freezer for 2 days, and then stored in an LN2 tank. Thawing was performed in a 37° C. constant temperature water bath. The cell frozen stock mixture was inoculated in 4.5 mL medium of 15 mL tube, and then centrifuged at 1000 rpm for 5 minutes. Cell pellets were added with 1 mL medium and inoculated in a 6-well plate.
A cell storage solution was prepared with a sample solution 10% (v/v), FBS 40% (v/v), and media 50% (v/v) according to the present invention, and frozen at −80° C. using a rapid freezer, then the cells were stored for 2 days, and further stored in a liquid nitrogen tank for 2 days or more. Then, the cells were thawed and used in the experiment. In addition, the cells were cultured by treatment with a leukemia inhibitory factor (LIF) to confirm the differentiation ability of stem cells. All the controls were cultured and differentiated under the same conditions, except that deionized water was added instead of the sample according to the present invention.

The nature of series [4]: Freezing control on food (beef frozen at -20 °C, thawed; SEM, optical microscope, TEM). As to the method: In order to determine whether Fmoc-FFT can be used as a cryoprotectant for foods, Fmoc-FFT was added to beef (FIG. 22a), then frozen at −20° C. for one day, thawed at room temperature, and then SEM images were observed (FIGS. 22b and d).
After freezing and thawing, Fmoc-FFT was added to water in order to confirm the beef tissue, frozen at −20° C., then the process of recrystallization of ice was observed under an optical microscope.
Further, in order to confirm the tissue change in more detail, the thawed tissue was rapidly frozen in liquid nitrogen, then cut while maintaining −20° C., and the internal tissue was checked. […] It was observed that, when the Fmoc-FFT was not added, the size of tissue pore was 22±8.6 μm, while it was 5±2.3 μm when adding the same.

Series [5] can be described thus: Gold nanoparticle (MPA-AuNP) colorimetric freeze/thaw assay for TH and IRI activity. As to the method: Thermal hysteresis (TH) as anti-freezing activity was measured in accordance with the method described in Park, J.-I., Lee, J. H., Gwak, Y., Kim, H. J., Jin, E., & Kim, Y.-P. (2013). Frozen assembly of gold nanoparticles for rapid analysis of antifreeze protein activity. Biosensors and Bioelectronics, 41, 752-757, and ice recrystallization inhibition (IRI) activity was measured based on Mitchell, D. E., Congdon, T., Rodger, A., & Gibson, M. I. (2015). Gold Nanoparticle Aggregation as a Probe of Antifreeze (Glyco) Protein-Inspired Ice Recrystallization Inhibition and Identification of New IRI Active Macromolecules. Scientific Reports, 5(1). More specifically, when dispersing AFP in a solution in which gold nanoparticles are dispersed, and freezing the solution then thawing again, if the AFP has good conjugating force with an ice crystal surface, the dispersibility of gold nanoparticles is good to maintain an original color of the solution, whereas if it has weak conjugating force, AFP is precipitated, and when ice crystals are rapidly formed, the solution is subjected to color change.
Gold nanoparticles (Cit-AuNP) stabilized with citric acid were synthesized to prepare mercaptopropionic acid (MPA)-AuNP. 20 mL of a storage solution containing 1 mM HAuCl4·3H2O was added to 50 mL of deionized water (DI water). After the solution was stirred and heated to a boiling point, 30 mM sodium citric acid in 2 mL of deionized water was further added to the solution and heated for 20 minutes. The color of the solution changed from bright yellow to burgundy. […] An average size of MPA-capped AuNP was measured to be about 16.7 nm.
On a microwell plate, 50 μL of a solution containing 0.5 mM sample was added to 350 μL of 300 μM MPA-AuNP solution, respectively. […] To quantitatively confirm the color change before and after freezing, absorption spectra of each mixture were measured with a UH5300 spectrometer before and after freezing. The spectra were measured from 300 nm to 900 nm at a scan speed of 400 nm/min, and aggregation properties (E525/E650) of each mixture were compared. […]

Series [6] is described as follows: Critical micellar concentration from emission intensity versus concentration. The series is classed as physicochemical.

As for `CC(NC(=O)C(Cc1ccccc1)NC(=O)C(Cc1ccccc1)NC(=O)OCC1c2ccccc2-c2ccccc21)C(N)=O` (stereo not drawn) [Fmoc-FFA] (Fmoc-Phe-Phe-Ala-NH2; configuration not given here), in series [1], the IRI effect entry is given as “had the IRI effect”. Also, the “toxicity to mESC” value in series [2] is recorded as “no toxicity”. Moreover, the “survival and proliferation of mESC after freezing and thawing” value in series [3] is “survival and proliferation of mESC was smoothly performed”.

With `NC(=O)C(CO)NC(=O)C(Cc1ccccc1)NC(=O)C(Cc1ccccc1)NC(=O)OCC1c2ccccc2-c2ccccc21` (stereo not drawn) [Fmoc-FFS] (Fmoc-Phe-Phe-Ser-NH2; configuration not given here), the IRI effect result in series [1] is recorded as “had the IRI effect”. In addition, the “cell viability with respect to mESC” value in series [2] is recorded as “significant cell viability”.

On to `CC(C)C(NC(=O)C(Cc1ccccc1)NC(=O)C(Cc1ccccc1)NC(=O)OCC1c2ccccc2-c2ccccc21)C(N)=O` (stereo not drawn) [Fmoc-FFV] (Fmoc-Phe-Phe-Val-NH2; configuration not given here), for which the IRI effect entry in series [1] was “had the IRI effect”. The “cell viability with respect to mESC” value in series [2] is given as “significant cell viability”.

Take `CC(O)C(NC(=O)C(Cc1ccccc1)NC(=O)C(Cc1ccccc1)NC(=O)OCC1c2ccccc2-c2ccccc21)C(N)=O` (stereo not drawn) [Fmoc-FFT] (Fmoc-Phe-Phe-Thr-NH2; configuration not given here): the “relative IRI activity” value in series [1] (comparison between materials, MLGS) was “highest IRI activity”. In series [1], the IRI effect result is on record as “had the IRI effect”. Moreover, in series [2], the “toxicity to mESC” value is “no toxicity”. Besides, the “survival and proliferation of mESC after freezing and thawing” value in series [3] is “survival and proliferation of mESC was smoothly performed”. In series [4] (thawed beef tissue refrozen in liquid nitrogen, cut at -20 °C), the “size of tissue pore” value worked out at 5±2.3 μm. Besides, the “size of recrystallized ice” value in series [4] (versus no Fmoc-FFT added, -20 °C) is recorded as “significantly smaller; also recorded: remarkably smaller”.

As for “Bovine serum albumin [BSA, reference compound]”, in series [5] (MPA-AuNP + 2 μM BSA or PEG), the “aggregation of MPA-AuNP (color change) after freezing/thawing” value is “aggregation did not occur”.

With `CC(O)C(NC(=O)C(Cc1ccccc1)NC(=O)C(Cc1ccccc1)NC(=O)Cc1ccc2ccccc2c1)C(N)=O` (stereo not drawn) [Naph-FFT], in series [1], the IRI effect entry is “had IRI effects”. The “cell viability with respect to mESC” value in series [2] is given as “significant cell viability”.

As for `CC(O)C(NC(=O)C(Cc1ccccc1)NC(=O)C(CC1=CN=C2C=CC=CC12)NC(=O)OCC1c2ccccc2-c2ccccc21)C(N)=O` (stereo not drawn) [Fmoc-WFT], in series [5] (50 μL of 0.5 mM sample in 350 μL of 300 μM MPA-AuNP, -65 °C 23 min), the “aggregation of gold particles after freezing/thawing (absorption peak shift 525 nm to 650 nm)” value is on record as “an aggregation phenomenon was exhibited”. The IRI effect result in series [1] is given as “had IRI effects”. In addition, the “cell viability with respect to mESC” value in series [2] was “significant cell viability”.

As to `C[S+](C)[O-]` [DMSO, dimethyl sulfoxide, reference compound], the “toxicity to mESC” value in series [2] is listed as “high toxicity”.

For `NC(=O)C(Cc1ccccc1)NC(=O)C(Cc1ccccc1)NC(=O)OCC1c2ccccc2-c2ccccc21` (stereo not drawn) [Fmoc-FF] (Fmoc-Phe-Phe-NH2; configuration not given here), the “critical micellar concentration (CMC)” value in series [6] (aqueous solution) stood at 17 µM. Further, the “toxicity to mESC” value in series [2] is on record as “no toxicity”. For the same molecule, the “survival and proliferation of mESC after freezing and thawing” value in series [3] is “survival and proliferation of mESC was smoothly performed”.

In series [6] (aqueous solution, compared to Fmoc-FFT), `CC(O)C(NC(=O)C(CCC(=O)O)NC(=O)C(Cc1ccccc1)NC(=O)C(CCC(=O)O)NC(=O)C(Cc1ccccc1)NC(=O)OCC1c2ccccc2-c2ccccc21)C(N)=O` (stereo not drawn) [Fmoc-FEFET] (Fmoc-FEFET-NH2; configuration not given here) yielded a CMC of 22.8 µM. For the same molecule, the solubility result in series [6] (compared to Fmoc-FFT) is “improved”. The “toxicity to mESC” value in series [2] is listed as “no toxicity”. The “survival and proliferation of mESC after freezing and thawing” value in series [3] was “survival and proliferation of mESC was smoothly performed”.
